Measured values taken from patent publication US20030186352A1, “Apicomplexan chorismate synthase sequences and an inhibitor of the shikimate pathway” (priority 1998, published 2003).
≈ marks a conversion by molar mass, not a printed value. Like-named read-outs stand apart in the source and are kept apart here.

Tests used:
[1] = system: T. gondii tachyzoites (RH strain); assay: T. gondii growth inhibition in HFF monolayers, tritiated uracil uptake; format: cell-based, Toxoplasma gondii
Method: The improvements are based on microscopic visual imspection of infected and inhibitor treated cultures, and on quantitation of nucleic acid synthesis of the parasite by measure intake of ^3H uracil onto the parasite's nucleic acid. Uracil is not utilized by mammalian cells. […] Only the RH strain tachyzoites, cultured for up to 72 hours, had been used in previously reported assays. The use of Me49, Ptg, and R5 mutant are unique aspects of the methods used in these assays in this invention.
In these assays toxicity of a candidate inhibitor was assessed by its ability to prevent growth of human foreskin fibroblasts (HFF) after 4 days and after 8 days as measured by tritiated thymidine uptake and microscopic evaluation. Confluent monolayers of HFF were infected with tachyzoites and bradyzoites. Inhibitor was added one hour later. Non-toxic doses were used in parasite growth inhibition assays. Parasite growth was measured by ability to incorporate tritiated uracil during the last 18 hours of culture.
First the toxicity of gabaculine was assessed by its ability to prevent growth of human foreskin fibroblasts (HFF) as measured by ^3H-thymidine uptake and microscopic evaluation. Non-toxic doses were used in parasite growth inhibition assays. in vitro parasite growth inhibition assays included confluent monolayers of HFF infected with tachyzoites (RH) or mutant Me49 (R5). Gabaculine was added 1 hour later. Parasite growth was measured by the ability to incorporate 3H-uracil during the last 18 hours of culture. In addition, parasite growth was evaluated microscopically in Giemsa stained slides.
Confluent monolayers of HFF cells, grown in 96-well plates are infected with T. gondii tachyzoites of the RH strain and serial dilutions of anti-microbial compound are applied 1 hour later. T. gondii growth is assessed in these cultures by their ability to incorporate tritiated uracil (2.5 μCi/well) added during the last 18 hours of culture. After harvesting cells with an automatic cell harvester, uracil incorporation is measured by liquid scintillation.

[2] = system: C. parvum; assay: C. parvum infection of MDBKF5D2 cell monolayers, immunofluorescence assay at 48 hours; format: cell-based, Cryptosporidium parvum
Method: C. parvum oocysts at 50,000/well were incubated at 37° C. (8% CO2) on confluent MDBKF5D2 cell monolayers in 96 well microtiter plates with the following concentrations of each drug. […] The level of infection of each well was determined and analyzed by an immunofluorescence assay at 48 hours using an antibody to C. parvum sporozoites made in rabbits at a concentration of 0.1%. Fluorescein-conjugated goat anti-rabbit antibody was used at a concentration of 1%.
C. parvum oocysts at 50,000/well were incubated with each drug (PRM=paromomycin which is the positive control, NPMG, gabaculine, SHAM, 8-hydroxyquinoline) at 37° C. (8% carbon dioxide) on confluent MDBKF5D2 cell monolayers in 96 well microtiter plates. The level of infection of each well was determined and analyzed by an immunofluorescence assay at 48 hours using as an antibody C. parvum sporozoite rabbit anti-serum (0.1%), and using fluorescein-conjugated goat anti-rabbit antibody (1%). Data are expressed as mean parasite count/field when 16 fields counted at 10× magnification “s.d. of the mean” (FIG. 6).

[3] = system: D6 clone of Plasmodium falciparum; assay: P. falciparum in vitro growth assay (Milhous et al.), D6 clone; format: cell-based; details: for IC50 / IC90: Plasmodium falciparum
[4] = system: W2 clone of Plasmodium falciparum; assay: P. falciparum in vitro growth assay (Milhous et al.), W2 clone; format: cell-based; details: for IC50 / IC90: Plasmodium falciparum
[5] = system: T. gondii tachyzoites; assay: TSA-DCA experiments: T. gondii growth in fibroblasts (3H uracil uptake, visual appearance); format: cell-based, Toxoplasma gondii
Method: (§1) Effects of inhibitors of T. gondii in vitro were assessed after 1, 4 or 5 days in tissue culture using fibroblasts infected with […] tachyzoites of T. gondii. Effects in the fibroblasts were scored. Compounds used were TSA-DCA, TSA-Na+, and DCA at various concentrations ranging up to 1 mM. Uptake of ^3H uracil (utilized by T. gondii but not by mammalian cells), and visual appearance of T. gondii in these cells were used to assess parasite growth. Effect of compounds on host cells was studied by microscopic examination and by measuring uptake of tritiated thymidine utilizing a non-confluent monolayer of fibroblasts.
(§2) The results in table 5 show the greatest inhibitory effect of TSA-DCA and some effect of DCA at a higher concentration. […] “T50” is the concentration at which 50% of the cells were killed (T=toxic) and so forth. […] Analysis was uptake of H3 thymidine. Confirmation was by visual inspection of microscope slides (e.g. FIGS. 15 A-D).

[6] = system: fibroblasts; assay: TSA-DCA experiments: effect on host cells (tritiated thymidine uptake, non-confluent fibroblasts); format: cell-based, human
Method: as §1, §2

[7] = system: T. gondii; assay: T. gondii infection in mice: manifestations, parasitemia, brain cysts; parameters: species or system Toxoplasma gondii
From the text: Cyst numbers present in a suspension of brain are enumerated, or cyst numbers in formalin fixed paraffin embedded sections are quantitated.
In this competitive PCR method the T. gondii B1 gene is amplified by PCR in the presence of a construct which produces a product slightly smaller than the wild type B1 gene. The amount of construct can be quantitated to semiquantitate the amount of the competing wild type gene.
A method to measure the amount of parasitemia in mouse peripheral blood has been developed. Briefly, the target for PCR amplification is the 35 fold repetitive B1 gene of T. gondii and the amplification was performed using primers previously reported. […] Competitive PCR was performed by spiking individual reactions (containing equal amounts of genomic DNA) with a dilution of the internal standard. Since this internal control contains the same primer template sequences, it competes with the B1 gene of T. gondii for primer binding and amplification. The sensitivity of the PCR reaction in each sample can be monitored. Following competitive PCR, the PCR products are distinguished by size and the amount of products generated by the target and internal standard can be compared on a gel. The amount of competitor DNA yielding equal amounts of products gives the initial amount of target gene.

[8] = D6 clone (second value of each pair)
[9] = W2 clone (first value of each pair)
[10] = exp. 5/15, day 4, range 12-100 (200) uM, no visual
[11] = exp. 5/29, day 4, range 125-1000 (2000) uM, no visual
[12] = exp. 8/23, day 1, range 250-2000 uM
[13] = D6 clone (second value of each pair), read-out: Concentrations of other compounds that inhibited these clones in this assay
[14] = W2 clone (first value of each pair), read-out: Concentrations of other compounds that inhibited these clones in this assay

## O=C(O)CC[N+](=O)[O-] [3-NPA, 3-Nitropropionic acid]
[1]; 3-NPA 0.006 mg ml, 4-day assay, medium about 30,000 CPM
  restriction of CPM (tritiated uracil incorporation): around 60%
[2]
  inhibition of C. parvum: inhibited
[3]; D6
  IC50: 2820 ng/mL (≈ 23.7 µM)
  IC90: 2.82 µg/mL (≈ 23.7 µM)
[4]; W2
  IC50: 3.3 µg/mL (≈ 27.7 µM)
  IC90: 4.61 µg/mL (≈ 38.7 µM)

## Oc1cccc2cccnc12 [8-OH-quinoline, 8-hydroxyquinoline]
[1]
  effect against T. gondii: effective against T. gondii
[2]; 8-OH-quinoline 0.1 μg/ml, media alone ~1800
  approximate 95% Cl count (mean parasite count per field): ~1300 count/field
[2]; 8-OH-quinoline 1 μg/ml, media alone ~1800
  approximate 95% Cl count (mean parasite count per field): ~1100 count/field
[2]; 8-OH-quinoline 10 μg/ml, media alone ~1800
  approximate 95% Cl count (mean parasite count per field): ~900 count/field
[2]; 8-OH-quinoline 100 μg/ml, media alone ~1800
  approximate 95% Cl count (mean parasite count per field): ~300 count/field
[3]; D6
  IC50: 1200 ng/mL (≈ 8.29 µM)
  IC90: 1.88 µg/mL (≈ 13 µM)
[4]; W2
  IC50: 1.63 µg/mL (≈ 11.2 µM)
  IC90: 4.52 µg/mL (≈ 31.1 µM)

## O=C1C(O)=C([C@H]2CC[C@H](c3ccc(Cl)cc3)CC2)C(=O)c2ccccc21 [Atovaquovone]
[3]; [8]
  Concentrations of other compounds that inhibited these clones in this assay: 0.12 ng/mL
[4]; [9]
  Concentrations of other compounds that inhibited these clones in this assay: 0.13 ng/mL

## CCN(CC)CCCC(C)Nc1ccnc2cc(Cl)ccc12 (stereo not drawn) [Chloroquin]
[3]; [8]
  Concentrations of other compounds that inhibited these clones in this assay: 2.88 ng/mL
[4]; [9]
  Concentrations of other compounds that inhibited these clones in this assay: 40.86 ng/mL

## C1CCC(NC2CCCCC2)CC1 [DCA, dicyclohexylamine]
[5]; Toxoplasma gondii, Fibroblast, 24 h
  IC50: 500 µM
[5]; day 1 of culture
  IC75: 1000 µM
[5]; [10]
  IC7 5-80: none
  IC50: none
[5]; [11]
  IC7 5-80: none
  IC50: none
[5]; [12]
  IC7 5-80: 250 to 500 µM
[5]; exp. 9/8, day 1, range 125-1000 uM
  IC7 5-80: 1000 µM
[6]; [10]
  T50: 50 µM
  T90: none
[6]; [11]
  T50: none
  T90: 2000 µM
[6]; [12]
  T50: 1000 µM
  T90: none

## CCCCN(CCCC)CCC(O)c1cc2c(Cl)cc(Cl)cc2c2cc(C(F)(F)F)ccc12 (stereo not drawn) [HAL]
[3]; [8]
  Concentrations of other compounds that inhibited these clones in this assay: 0.51 ng/mL
[4]; [9]
  Concentrations of other compounds that inhibited these clones in this assay: 0.33 ng/mL

## NC[C@@H]1O[C@H](O[C@H]2[C@@H](O)[C@H](O[C@@H]3[C@@H](O)[C@H](N)C[C@H](N)[C@H]3O[C@H]3O[C@H](CO)[C@@H](O)[C@H](O)[C@H]3N)O[C@@H]2CO)[C@H](N)[C@@H](O)[C@@H]1O [PRM]
[2]; paromomycin with ethanol (positive control), media and ethanol ~1200
  approximate 95% Cl count (mean parasite count per field): ~100 count/field
[2]; paromomycin without ethanol (positive control), media alone ~1800
  approximate 95% Cl count (mean parasite count per field): ~200 count/field

## CCc1nc(N)nc(N)c1-c1ccc(Cl)cc1 [Pyrimethamine]
[3]; [13]
  IC50: 0.05 ng/mL (≈ 0.000201 µM)
[4]; [14]
  IC50: 0.0821 µg/mL (≈ 0.33 µM)

## C=C[C@H]1C[N@@]2CC[C@H]1C[C@H]2[C@H](O)c1ccnc2ccc(OC)cc12 [Quinine]
[3]; [13]
  IC50: 4.41 ng/mL (≈ 0.0136 µM)
[4]; [14]
  IC50: 0.0386 µg/mL (≈ 0.119 µM)

## O=C(NO)c1ccccc1O [SHAM, Salicylhydroxamic acid]
[1]
  effect against T. gondii: effective against T. gondii
[1]; SHAM 0.16 μg/ml, 4 day assay, medium around 54,000 CPM
  restriction of CPM (tritiated uracil incorporation): around 50%
[1]; SHAM 0.78 μg/ml, 4 days, medium around 54,000, no RH around 1,000 CPM
  counts (tritiated uracil incorporation): about 8,000 CPM
[2]; SHAM 0.1 μg/ml, 0.2% ETOH, media and ethanol ~1200
  approximate 95% Cl count (mean parasite count per field): ~1200 count/field
[2]; SHAM 1 μg/ml, 0.2% ETOH, media and ethanol ~1200
  approximate 95% Cl count (mean parasite count per field): ~1100 count/field
[2]; SHAM 10 μg/ml, 0.2% ETOH, media and ethanol ~1200
  approximate 95% Cl count (mean parasite count per field): ~1100 count/field
[2]; SHAM 100 μg/ml, 0.2% ETOH, media and ethanol ~1200
  approximate 95% Cl count (mean parasite count per field): ~400 count/field
[7]
  parasitemia and number of brain cysts in vivo: affects parasitemia and number of brain cysts

## Nc1ccc(S(=O)(=O)Nc2ncccn2)cc1 [Sulfadiazine]
[1]; sulphadiazine 1.56 μmg/ml, 4 days, medium about 36,000 CPM
  reduction of growth of T. gondii: about 60%
[7]
  manifestations of infection in vivo: reduced manifestations of infection
